Experimental data taken from US11976083B2, “Inhibitors of peptidylarginine deiminases” (Gilead Sciences, Inc., priority 2020, dated 2024).

Target: T1, human PAD4 (Homo sapiens, UniProt Q9UM07)
T1 construct: human PAD4 (NM_012387), A2-P663, was PCR amplified; His-SUMO (N, cleaved yes); made in house; host or cells: E. coli BL21(DE3)
Test: In vitro PAD4 BAEE biochemical assay
Conditions: BAEE substrate 3 mM, 5 nM PAD4, 2 mM calcium chloride; geometric mean of multiple experiments
In short: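 Fluorescence read-out (ex 405/em 535 nm) of isoindole formed from ammonia, o-phthalaldehyde and DTT after EDTA stop. Reaction: 5 nM PAD4, 2 mM CaCl2, 3 mM BAEE, 2 h, 25 °C, after 30 min enzyme–compound preincubation. Normalised to BB-Cl-Amidine (50 µM) and DMSO controls.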

T1 sequence (Q9UM07 2-663): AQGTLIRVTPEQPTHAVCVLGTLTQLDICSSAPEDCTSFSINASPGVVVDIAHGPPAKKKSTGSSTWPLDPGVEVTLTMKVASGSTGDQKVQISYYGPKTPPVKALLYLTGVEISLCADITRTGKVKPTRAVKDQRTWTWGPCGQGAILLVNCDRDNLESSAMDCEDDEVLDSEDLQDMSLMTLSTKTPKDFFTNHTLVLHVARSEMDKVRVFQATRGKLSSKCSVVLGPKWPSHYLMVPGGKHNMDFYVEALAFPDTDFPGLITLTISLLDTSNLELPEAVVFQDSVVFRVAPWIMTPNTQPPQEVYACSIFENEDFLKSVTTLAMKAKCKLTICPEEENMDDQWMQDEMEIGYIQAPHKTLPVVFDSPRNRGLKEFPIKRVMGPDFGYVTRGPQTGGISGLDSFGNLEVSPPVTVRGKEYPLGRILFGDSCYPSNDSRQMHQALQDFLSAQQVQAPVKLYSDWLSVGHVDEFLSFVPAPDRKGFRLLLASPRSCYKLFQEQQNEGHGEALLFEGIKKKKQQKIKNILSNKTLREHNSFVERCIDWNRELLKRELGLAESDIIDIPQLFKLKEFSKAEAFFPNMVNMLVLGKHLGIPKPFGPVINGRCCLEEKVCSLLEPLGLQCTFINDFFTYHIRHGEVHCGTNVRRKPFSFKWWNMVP

SMILES | IC50
C[C@H]1NC(=O)c2ccc(C3CC3)nc2CCCCCn2c(-c3nc4cc(C(=O)N5C[C@H](N)[C@@H]6CC[C@H]5C6)cc(F)c4n3C3CC3)cc3ccc1nc32 [Example 813, (2˜{R})-17-[5-[(1˜{S},4˜{R},5˜{R})-4-amino-2-azabicyclo[3.2.1]octane-2-carbonyl]-1-cyclopropyl-7-fluoro-benzimidazol-2-yl]-8-cyclopropyl-2-methyl-3,9,16,22-tetrazatetracyclo[14.5.2.0^{5,10}.0^{19,23}]tricosa-1(21),5(10),6,8,17,19,22-heptaen-4-one] | 0.026 µM
C[C@H]1NC(=O)c2ccc(Cl)nc2CCCC(F)(F)Cn2c(-c3nc4cc(C(=O)N5C[C@H](N)[C@@H]6CC[C@H]5C6)cc(F)c4n3C3CC3)cc3ccc1nc32 [Example 814, (2~{R})-17-[5-[(1~{S), 4~{R},5~{R})-4-amino-2-azabicyclo[3.2.1]octane-2-carbonyl]-1-cyclopropyl-7-fluoro-benzimidazol-2-yl]-8-chloro-14,14-difluoro-2-methyl-3,9,16,22-tetrazatetracyclo[14.5.2.0^ {5,10).0^{19,23}]tricosa-1(21),5(10),6,8,17,19,22-heptaen-4-one] | 0.038 µM
COc1cc(C(=O)N2C[C@H](N)[C@@H]3CC[C@H]2C3)cc2nc(-c3cc4ccc5nc4n3CCCCC[C@]3(F)C[C@H]3C(=O)N[C@@H]5C)c(C)n12 [Example 815, (2~{R},5~{S},7~{S})-14-[7-[(1~{S},4~{R},5~{R})-4-amino-2-azabicyclo[3.2.1]octane-2-carbonyl]-5-methoxy-3-methyl-imidazo[1,2-a]pyridin-2-yl]-7-fluoro-2-methyl-3,13,19-triazatetracyclo [11.5.2.0^{5,7}.0^{16,20}] icosa-1(18),14,16,19-tetraen-4-one] | 0.026 µM
COc1cc(C(=O)N2C[C@H](N)[C@@H]3CC[C@H]2C3)cc2nc(-c3cc4ccc5nc4n3CCCCC[C@]3(F)C[C@H]3C(=O)N[C@@H]5C)n(C3CC3)c12 [Example 816, (2~{R},5~{S},7~{S})-14-[5-[(1~{S},4~{R},5~{R})-4-amino-2-azabicyclo[3.2.1]octane-2-carbonyl]-1-cyclopropyl-7-methoxy-benzimidazol-2-yl]-7-fluoro-2-methyl-3,13,19-triazatetracyclo[11.5.2.0^ {5,7}.0^{16,20}]icosa-1 (18),14,16,19-tetraen-4-one] | 0.019 µM
COCCn1c(-c2cc3ccc4nc3n2CCCCC[C@@H]2C[C@H]2C(=O)N[C@@H]4C)nc2cc(C(=O)N3C[C@H](N)[C@@H]4CC[C@H]3C4)cc(OC)c21 [Example 817, (2~{R},5~{R},7~{R})-14-[5-[(1~{S},4~{R},5~{R})-4-amino-2-[3.2.1]octane-2-carbonyl]-7-methoxy-1-(2-methoxyethyl)benzimidazol-2-yl]-2-methyl-3,13,19-triazatetracyclo[11.5.2.0^ {5,7}.0^{16,20}]icosa-1(18),14,16,19-tetraen-4-one] | 0.013 µM
COc1cc(C(=O)N2C[C@H](N)[C@@H]3CC[C@H]2C3)cc2nc(-c3cc4ccc5nc4n3CCCCCc3cc(Cl)ncc3C(=O)N[C@@H]5C)n(C3CC3)c12 [Example 818, (2~{R})-17-[5-[(1~{S},4~{R}, 5~{R})-4-amino-2-azabicyclo[3.2.1]octane-2-carbonyl]-1-cyclopropyl-7-methoxy-benzimidazol-2-yl]-8-chloro-2-methyl-3,7,16,22-tetrazatetracyclo[14.5.2.0^ {5,10).0^{19,23}]tricosa-1(21),5(10),6,8,17,19,22-heptaen-4-one] | 0.012 µM
COc1cc(C(=O)N2C[C@H](N)[C@@H]3CC[C@H]2C3)cc2nc(-c3cc4ccc5nc4n3CCCCCc3nc(C(F)F)ccc3C(=O)N[C@@H]5C)n(C3CC3)c12 [Example 819, (2~{R})-17-[5-[(1~{S},4~{R}, 5~{R})-4-amino-2-azabicyclo [3.2.1]octane-2-carbonyl]-1-cyclopropyl-7-methoxy-benzimidazol-2-yl]-8-(difluoromethyl)-2-methyl-3,9,16,22-tetrazatetracyclo[14.5.2.0^ {5,10}.0^{19,23}] tricosa-1(21),5(10),6,8,17, 19,22-heptaen-4-one] | 0.01 µM
C[C@H]1NC(=O)c2ccc(C#Cc3ccccc3)nc2CCCCCn2c(-c3nc4cc(C(=O)N5C[C@H](N)[C@@H]6CC[C@H]5C6)cc(F)c4n3C3CC3)cc3ccc1nc32 [Example 820, (2˜{R})-17-[5-[(1˜{S},4˜{R},5˜{R})-4-amino-2-azabicyclo[3.2.1]octane-2-carbonyl]-1-cyclopropyl-7-fluoro-benzimidazol-2-yl]-2-methyl-8-(2-phenylethynyl)-3,9,16,22-tetrazatetracyclo[14.5.2.0^{5,10}.0^{19,23}]tricosa-1(21),5(10),6,8,17,19,22-heptaen-4-one] | 0.168 µM
COc1cc(C(=O)N2CC[C@@H](OC)[C@@H](N)C2)cc2nc(-c3cc4ccc5nc4n3CC(F)(F)CCCCC3(CC(F)(F)C3)C(=O)N[C@@H]5C)n(C)c12 [Example 821, (11~{R})-17-[5-[(3~{S),4~ {R})-3-amino-4-methoxy-piperidine-1-carbonyl]-7-methoxy-1-methyl-benzimidazol-2-yl]-1′,1′,3,3-tetrafluoro-11-methyl-spiro[1,10,19-triazatricyclo[10.5.2.0^ {15,18}]nonadeca-12 (19),13,15(18),16-tetraene-8,3′-cyclobutane]-9-one] | 0.102 µM
COc1cc(C(=O)N2CC[C@@H](OC(F)F)[C@@H](N)C2)cc2nc(-c3cc4ccc5nc4n3CC(F)(F)CCCCC3(CC(F)(F)C3)C(=O)N[C@@H]5C)n(C)c12 [Example 822, (11~{R})-17-[5-[(3~{S},4~ {R})-3-amino-4-(difluoromethoxy)piperidine-1-carbonyl]-7-methoxy-1-methyl-benzimidazol-2-yl]-1′,1′,3,3-tetrafluoro-11-methyl-spiro [1,10,19-triazatricyclo [10.5.2.0^{15,18}]nonadeca-12(19),13,15(18),16-tetraene-8,3′-cyclobutane]-9-one] | 0.205 µM
COc1cc(C(=O)N2CC[C@@H](OC)[C@@H](N)C2)cc2nc(-c3cc4ccc5nc4n3CC(F)(F)CCCCC3(CC3)C(=O)N[C@@H]5C)n(C)c12 [Example 823, (11~{R})-17-[5-[(3~ {S},4~{R})-3-amino-4-methoxy-piperidine-1-carbonyl]-7-methoxy-1-methyl-benzimidazol-2-yl]-3,3-difluoro-11-methyl-spiro[1,10,19-triazatricyclo[10.5.2.0^ {15,18}]nonadeca-12 (19),13,15(18),16-tetraene-8,1′-cyclopropane]-9-one] | 0.146 µM
COc1cc(C(=O)N2CC[C@@H](OC(F)F)[C@@H](N)C2)cc2nc(-c3cc4ccc5nc4n3CCCCCc3nc4ccccc4nc3C(=O)N[C@@H]5C)n(C)c12 [Example 824, (2~{R})-21-[5-[(3~{S},4~{R})-3-amino-4-(difluoromethoxy)piperidine-1-carbonyl]-7-methoxy-1-methyl-benzimidazol-2-yl]-2-methyl-3,6,13,20,26-pentazapentacyclo [18.5.2.0^{5,14).0^{7, 12}.0^{23,27}]heptacosa-1(26),5,7(12),8,10,13,21, 23(27),24-nonaen-4-one] | 0.043 µM
COc1cc(C(=O)N2CC[C@@H](OC)[C@@H](N)C2)cc2nc(-c3cc4ccc5nc4n3CCCCCc3ccnc(F)c3C(=O)N[C@@H]5C)n(C)c12 [Example 825, (2~{R})-17-[5-[(3~{S},4~ {R})-3-amino-4-methoxy-piperidine-1-carbonyl]-7-methoxy-1-methyl-benzimidazol-2-yl]-6-fluoro-2-methyl-3,7,16,22-tetrazatetracyclo[14.5.2.0^ {5,10}.0^{19,23}]tricosa-1(21),5,7,9,17,19,22-heptaen-4-one] | 0.038 µM
C[C@H]1NC(=O)[C@@H]2C[C@H]2CCCCCn2c(-c3nc4cc(C(=O)N[C@H]5CNCC[C@@H]5F)c(F)cc4n3[C@H]3C[C@H]3F)cc3ccc1nc32 [Example 826, 6-fluoro-1-[(1~{S},2~{R})-2-fluorocyclopropyl]-~{N}-[(3~{S),4~{S})-4-fluoro-3-piperidyl]-2-[(2~{R},5~{R},7~ {R})-2-methyl-4-oxo-3,13,19-triazatetracyclo [11.5.2.0^{5,7}.0^{16,20}]icosa-1(19),14,16(20),17-tetraen-14-yl]benzimidazole-5-carboxamide] | 0.031 µM
CO[C@@H]1CCN(C(=O)c2cc3nc(-c4cc5ccc6nc5n4CCCCC[C@@H]4C[C@H]4C(=O)N[C@@H]6C)n([C@H]4C[C@H]4F)c3cc2F)C[C@@H]1N [Example 827, (2~{R},5~{R},7~{R})-14-[5-[(3~{S},4~{R})-3-amino-4-methoxy-piperidine-1-carbonyl]-6-fluoro-1-[(1~{S},2~{R})-2-fluorocyclopropyl]benzimidazol-2-yl]-2-methyl-3,13,19-triazatetracyclo[11.5.2.0^ {5,7}.0^{16,20}]icosa-1(19),14,16(20),17-tetraen-4-one] | 0.036 µM
CO[C@@H]1CCN(C(=O)c2cc(F)c3c(c2)nc(-c2cc4ccc5nc4n2CCCCCc2nc4ccccc4nc2C(=O)N[C@@H]5C)n3C2CC2)C[C@@H]1N [Example 828, (2~{R})-21-[5-[(3~{S), 4~{R})-3-amino-4-methoxy-piperidine-1-carbonyl]-1-cyclopropyl-7-fluoro-benzimidazol-2-yl]-2-methyl-3,6,13,20,26-pentazapentacyclo [18.5.2.0^{5,14}.0^{7, 12}.0^{23,27}]heptacosa-1(26),5(14),6,8,10,12,21,23(27), 24-nonaen-4-one] | 0.024 µM
CO[C@@H]1CCN(C(=O)c2cc(F)c3c(c2)nc(-c2cc4ccc5nc4n2CCCCCc2nc4ccccc4cc2C(=O)N[C@@H]5C)n3C2CC2)C[C@@H]1N [Example 829, (2~{R})-21-[5-[(3~{S},4~ {R})-3-amino-4-methoxy-piperidine-1-carbonyl]-1-cyclopropyl-7-fluoro-benzimidazol-2-yl]-2-methyl-3,13,20,26-tetrazapentacyclo [18.5.2.0^{5,14}.0^{7,1 2}.0^{23,27}]heptacosa-1(26),5(14),6,8,10,12,21,23(27), 24-nonaen-4-one] | 0.015 µM
